# Assay results reported in article PMC9545474, “Anticancer Water‐Soluble Organoruthenium Complexes: Synthesis and Preclinical Evaluation” (Chembiochem, 2022).
# Tests used:
# [1] = system: A2780 cells; assay: JC-10 mitochondrial membrane potential assay by flow cytometry; assay type: cell-based, human; details: A2780, 24 h, complexes at IC50, cisplatin 6.5 µM
# From the text: A membrane potential sensitive fluorescent probe JC‐10 was used to determine whether the apoptosis induced by complexes 6 and 8 is accompanied by changes in the mitochondrial membrane potential (ΔΨm) of A2780 cells. JC‐10 aggregates inside mitochondria and emits orange fluorescence. Following membrane […], JC‐10 is disaggregated and this in turn reduces the orange fluorescence.
# Figure 8 Effect of complexes 6 and 8 on the mitochondrial membrane potential. […] The percentages of cells with depolarised mitochondrial membrane potential were assessed by flow cytometry after staining with JC‐10. The data are expressed as the means±SD of the three individual experiments.
# Mitochondrial membrane potential assay: Analysis of the changes of mitochondrial potential in A2780 cells after exposure to complexes 6 and 8 was carried out using the JC‐10 mitochondrial membrane potential assay kit (abcam®) according to the manufacturer's instructions. Briefly, 1.0×10^6 cells per well were seeded in a 6‐well plate and incubated for 24 at 37 °C and a 5 % CO2 humidified atmosphere. […] Supernatants were removed by suction, and each well was washed with PBS before detaching the cells using trypsin. Staining of the samples was done in tubes protected from light, incubating for 30 min in the dark at room temperature. Samples were immediately analysed on a BD Accuri C6 Plus System Flow Cytometer, reading the reduction of fluorescence in the FL2 channel.
# [2] = system: A2780cisR cisplatin-resistant ovarian cancer cells; assay: 24-hour MTT chemosensitivity assay with 72-hour recovery, A2780cisR; assay type: cell-based, human; details: for IC50: 24 h exposure, 72 h recovery, MTT, read-out: IC50 values ±SD, A2780cisR; for Selectivity index (SI), A2780cisR: mean IC50 PNT2 / mean IC50 A2780cisR
# Procedure: Chemosensitivity studies were undertaken using a 24‐hour MTT assay, with a 72‐hour recovery period. The IC50 values were determined against ovarian A2780 (cisplatin‐sensitive) and A2780cisR (cisplatin‐resistant) cancer cell lines, non‐small‐cell lung H460 cancer cell line, and normal prostate PNT2 cell line, exposed to each of compounds 4–8, cisplatin or the phosphine ligands (Table 1 and S4, Figures S29–S31). […] This is unusual but can be related to solubility issues not visible for the naked eye and thus hindering its activity in cells. […] When tested on their own, the phosphine ligands are not active below 100 μM for all four cell lines. […] This therefore prevents comparison with the well‐known RAPTA family, and more especially with RAPTA−C which bears a PTA ligand and a p‐cym ligand, making this complex relatively similar in terms of geometry with complex 4.[21] […] This confirms the interest of the sulfur coordinating atom in terms of cytotoxicity for organoruthenium complexes.[23]
# Chemosensitivity assay: In vitro chemosensitivity tests were performed against A2780, A2780cisR, PNT2 and H460 cells. Cells were routinely maintained as monolayer cultures in RPMI 1640 medium supplemented with 10 % foetal calf serum, penicillin (100 I.U./mL) and streptomycin (100 μg/mL), sodium pyruvate (1 mM) and L‐glutamine (2 mM). For chemosensitivity studies, cells were seeded in 96‐well plates at a concentration of 7.5×10^3 cells per well and the plates were incubated for 24 h at 37 °C and a 5 % CO2 humidified atmosphere prior to drug exposure.
# Complexes were dissolved in either DMSO (complexes 4, 5, and 8) or PBS (complexes 6 and 7) to provide stock solutions which were further diluted with media to provide a range of final concentrations. Drug‐media solutions were added to cells (the final concentration of DMSO was less than 1 % (v/v) in all cases) and incubated for 24 h at 37 °C and a 5 % CO2 humidified atmosphere. The drug‐media solution was removed from the wells and the cells were washed with PBS (100 μL, twice) and 200 μL of complete fresh media were added to each well. The plates were further incubated for 72 h at 37 °C and a 5 % CO2 humidified atmosphere to allow for a period of recovery. 3‐(4,5‐dimethylthiazol‐2‐yl)‐2,5‐diphenyltetrazolium bromide (MTT) (40 μL, 2.5 mg/mL) was added to each well and plates were incubated for 2 h. All solutions were then removed and 100 μL of DMSO was added to each well in order to dissolve the purple formazan crystals. A Thermo Scientific Multiskan EX microplate photometer was used to measure the absorbance in each well at 570 nm. Cell survival was determined as the absorbance of treated cells divided by the absorbance of controls and expressed as a percentage. The IC50 values were determined from plots of % survival against drug concentration. Each experiment was repeated in triplicates of triplicates and a mean value was obtained and stated as IC50 (μM) ± SD. Untreated cells were used as a negative control, and cells treated with cisplatin were used as a positive control.
compound,measurement,setting,value
"Cc1ccc(C(C)C)cc1.N#CC1=C(C#N)[S][Ru-]([P+](c2ccccc2)(c2ccccc2)c2ccccc2)[S]1 [Complex 8, (η^6‐p‐cymene)(PPh3)Ru(Mnt)]",% cell population with high orange fluorescence,[1]; Experiment 1,81.9%
same,% cell population with low orange fluorescence,[1]; Experiment 1,18.1%
same,% cell population with high orange fluorescence,[1]; Experiment 2,82.5%
same,% cell population with low orange fluorescence,[1]; Experiment 2,17.5%
same,% cell population with high orange fluorescence,[1]; Experiment 3,80.0%
same,% cell population with low orange fluorescence,[1]; Experiment 3,20.0%
same,% cell population with high orange fluorescence,"[1]; Summary, mean values ± SD",81.5 ± 1.3%
same,% cell population with low orange fluorescence,"[1]; Summary, mean values ± SD",18.5 ± 1.3%
same,IC50,[2],0.98 ± 0.06 µM
same,"Selectivity index (SI), A2780cisR",[2],2.45
(η^6‐p‐cymene)(TPPTS)Ru(Mnt) [Complex 6],% cell population with high orange fluorescence,[1]; Experiment 1,60.4%
same,% cell population with low orange fluorescence,[1]; Experiment 1,39.6%
same,% cell population with high orange fluorescence,[1]; Experiment 2,55.5%
same,% cell population with low orange fluorescence,[1]; Experiment 2,44.5%
same,% cell population with high orange fluorescence,[1]; Experiment 3,62.7%
same,% cell population with low orange fluorescence,[1]; Experiment 3,37.3%
same,% cell population with high orange fluorescence,"[1]; Summary, mean values ± SD",59.5 ± 3.7%
same,% cell population with low orange fluorescence,"[1]; Summary, mean values ± SD",40.5 ± 3.7%
same,IC50,[2],1.3 ± 0.01 µM
same,"Selectivity factor (cross-resistance, resistance factor RF)",[2]; IC50 A2780cisR / IC50 A2780,2.2
same,"Selectivity index (SI), A2780cisR",[2],1.23
